Results from US11225504B2, “Functional polypeptide and its application thereof in preparing medicament for preventing and treating pulmonary fibrosis” (Guangdong Medical University, priority 2017, dated 2022).
Residues, ends and D or L forms follow the SMILES beside them.

Tests used:
[1] = system: human normal lung epithelial cell BEAS-2B; experiment: Growth effects on human normal lung epithelial cell BEAS-2B (FIG. 4); type: cell-based
[2] = system: bleomycin-induced pulmonary fibrosis; experiment: Prevention and treatment of pulmonary fibrosis IPF experiment (bleomycin-induced, mice); type: in vivo, C57 mice
Method: (1) Animals: SPF grade C57 mice, 22 g±2 g, 60 mice, females. The mice was divided into the following groups using the random digits table: the control group, the model group, the pirfenidone group (50 mg/kg), the EZY-1 polypeptide low dose group (0.25 mg/kg), the EZY-1 polypeptide medium dose group (0.5 mg/kg), the EZY-1 polypeptide high dose group (1.0 mg/kg), 10 animals per group. (3) After the mice were anesthetized by intraperitoneal injection of 1% sodium pentobarbital at a dose of 50 mg/kg, they are fixed to the operation console on their back. Their tongues were pulled out with tweezers to expose the trachea, and 5 mg/kg Bleomycin was slowly injected under a cold light source magnifying glass. Immediately after the injection, the operation console was erected and rotated for 3 minutes to evenly distribute the drug solution in the lungs. The control group was injected with an equal volume of isotonic saline in the same way as the previous method. After 10 days, the mice were intra-gastrically administered with 0.1 ml/10 g with drugs. The control group and the model group were intra-gastrically administered with an equal volume of isotonic saline. The other groups were intra-gastrically administered with the corresponding dose of the drug for 35 days, once a day. After 35 days of drug administration, the mice were anesthetized and sacrificed, and the two intact lung tissues were isolated and weighed. The same part of the right upper lobe was taken, fixed with 4% paraformaldehyde for 48 hours, and paraffin sections were generated for Hematoxylin-Eosin (HE) staining for histopathological observations. The same part of the […] was taken for the measurement of HYP content in the lung tissue. Plasma was collected for the measurement of T-SOD, MDA, and GSH-PX levels. Statistical analysis was performed using SPSS 17.0 software. Measurement data were expressed as mean±standard deviation (x±s). Comparison of the means in multiple samples was performed by one-way ANOVA. Comparison between groups was performed by t test, with P≤0.05 indicating statistically significant differences.

[3] = 50 mg/kg intragastric once a day for 35 days, bleomycin mice, mean ± SD

| Compound | toxicity to normal cells (growth of BEAS-2B) [1] | GSH-PX (plasma) [2, 3] | HYP (lung tissue) [2, 3] | MDA (plasma) [2, 3] | T-SOD (plasma) [2, 3] | pathological changes of lung tissue (HE staining, FIG. 5) ([2]; EZY-1 low, medium and high dose (0.25, 0.5, 1.0 mg/kg), pirfenidone 50 mg/kg, 35 days) |
| --- | --- | --- | --- | --- | --- | --- |
| CC[C@H](C)[C@H](NC(=O)CNC(=O)[C@H](CC(N)=O)NC(=O)[C@H](Cc1ccc(O)cc1)NC(=O)[C@@H](NC(=O)[C@@H](NC(=O)[C@H](CS)NC(=O)[C@H](Cc1ccccc1)NC(=O)[C@H](CS)NC(=O)[C@H](C)NC(=O)CNC(=O)[C@@H](NC(=O)[C@@H](N)CCCNC(=N)N)[C@@H](C)O)C(C)C)[C@@H](C)CC)C(=O)N[C@@H](CC(C)C)C(=O)N[C@@H](Cc1ccc(O)cc1)C(=O)N1CCC[C@H]1C(=O)O [EZY-1 polypeptide, RTGACFCVIYNGILYP] (H-RTGACFCVIYNGILYP-OH) | low toxicity to normal cells | – | – | – | – | – |
| Cc1ccc(=O)n(-c2ccccc2)c1 [pirfenidone] | – | 672.92 ± 98.72 active unit | 48.36 ± 5.01 μg/g lung tissues Wet weight | 6.52 ± 0.71 nmal/mL | 156.05 ± 17.32 U/mL | reduce alveolar structural damage, reduce collagen fiber production, and inhibit the inflammatory cell infiltration |
